Assay results: article PMC6858952 (Clinical cancer research : an official journal of the …, 2019)
pEC50: −log10 of the molar value.

Tests used:
[1] = Intratumoral gemcitabine pharmacokinetic analysis; format: in vivo, mouse; settings: KPC tumors, with versus without MEKi and AKTi
[2] = tested on: KPC mice (pancreatic ductal adenocarcinoma); test: Survival study in tumor-bearing KPC mice; format: in vivo, mouse
[3] = tested on: mouse tumor organoids (mT); test: Organoid cytotoxicity assay; format: cell-based; settings: 72 h, read-out: EC50 mT
[4] = tested on: hT3 organoid orthotopic xenografts in NSG mice; test: Orthotopic xenografts of human tumor organoids, 7-day trial; format: in vivo, mouse
[5] = tested on: mouse organoids from normal pancreata (mN); test: Organoid cytotoxicity assay; format: cell-based; settings: 72 h, read-out: EC50 mN
[6] = tested on: human organoids from normal pancreata (hN); test: Organoid cytotoxicity assay; format: cell-based; settings: 72 h, read-out: EC50 hN

In the case of `Nc1ccn([C@@H]2O[C@H](CO)[C@@H](O)C2(F)F)c(=O)n1` [Gem, gemcitabine], the “intratumoral concentration of Gem and its metabolites” value [1] was “no differences in intratumoral concentration”, the “survival (in words)” value [2] was “did not significantly impact” and the “tumor growth (in words)” value [2] was “did not significantly impact”.
With `CCOc1cc2ncc(C#N)c(Nc3ccc(OCc4ccccn4)c(Cl)c3)c2cc1NC(=O)/C=C/CN(C)C` [ERBBi, neratinib] the pEC50 [3] was 5.92, the “cell death by CC3 IHC (in words)” value [4] was “no effect on cell death” and the “cell proliferation by Ki67 IHC (in words)” value [4] was “reduced cell proliferation”.
In the case of `Cn1cnc2c(F)c(Nc3ccc(Br)cc3Cl)c(C(=O)NOCCO)cc21` [MEKi, selumetinib], the pEC50 [5] was 5.70, the “cell death by CC3 IHC (in words)” value [4] was “significantly increased” and the “cell proliferation by Ki67 IHC (in words)” value [4] was “did not have any significant impact”. For the same compound, the pEC50 [6] was 4.92, the “survival (in words)” value [2] was “did not significantly impact” and the “tumor growth (in words)” value [2] was “did not significantly impact”.
In the case of `NC1(c2ccc(-c3nc4ccn5c(=O)[nH]nc5c4cc3-c3ccccc3)cc2)CCC1` [AKTi, MK2206], the pEC50 [5] was 6.85, the pEC50 [6] was 4.15 and the “survival (in words)” value [2] was “without extension in survival”. The “tumor growth (in words)” value [2] was “reduced tumor growth”.
